# Data: patent US20230165867A1 (CHENGDU BAIYU PHARMACEUTICAL CO., LTD., priority 2020, published 2023)
# Target: T1, DNA-PK kinase (Homo sapiens, UniProt P78527)
# T1 construct: purchased Promega V4107
# Assay: Inhibition assay of DNA-PK kinase (Promega kit, ADP-Glo chemiluminescence)
# Format: biochemical
# Conditions: 50 µM ATP, 37° C., 60 min; read-out: IC50 (nM), inhibitory activity on DNA-PK kinase
# Description: The inhibitory activity of the compounds on DNA-PK kinase was measured by using a DNA-PK kinase assay kit (purchased from Promega, Cat.#: V4107, Lot: 0000366495). The results were quantified by chemiluminescence, and the detailed experimental protocol was as follows: • i. An ADP-fluorescence standard curve over a range of concentrations was plotted according to the kit instructions; • ii. […] The mixtures were mixed well, centrifuged (1000 rpm, 30 s), and incubated at 37° C. for 60 min; • iv. 5 µL of ADP-Glo™ Reagent was added to stop the reaction, which was then mixed well, centrifuged (1000 rpm, 30 s), and incubated at room temperature for 40 min; • v. 10 µL Kinase Detection Reagent was added, and the mixture was mixed well by shaking, centrifuged (1000 rpm, 30 s), and incubated at room temperature for 30 min; • vi. The […] was measured by using a microplate reader (Thermo fisher, Varioskan LUX).
row,IC50 [nM],Structure (SMILES)
1,2.17,"CO[C@H]1CC[C@H](n2c(=O)n(C)c3cnc(Nc4cc(F)c(C(N)=O)cc4C)nc32)CC1 [Compound 71, 2-Fluoro-4-((9-(trans-4-methoxycyclohexyl)-7-methyl-8-oxo-8,9-dihydro-7H-purin-2-yl)amino)-5-methylbenzamide]"
2,0.24,"Cc1cc(C(N)=O)c(F)cc1Nc1ncc2c(n1)n(C1C[C@H]3CC(O)C[C@H]3C1)c(=O)n2C (stereo partly drawn) [Compound 84, 2-Fluoro-4-((9-((3aR,6aS)-5-hydroxyoctahydropentalen-2-yl)-7-methyl-8-oxo-8,9-dihydro-7H-purin-2-yl)amino)-5-methylbenzamide]"
3,0.44,"Cc1cc(C(N)=O)c(F)cc1Nc1ncc2c(n1)n(C1CCC3(CC1)COC3)c(=O)n2C [Compound 86, 2-Fluoro-5-methyl-4-((7-methyl-8-oxo-9-(2-oxaspiro[3.5]nonan-7-yl)-8,9-dihydro-7H-purin-2-yl)amino)benzamide]"
4,3.83,"Cc1cc(C(N)=O)c(F)cc1Nc1ncc2c(n1)n(C1CC3(COC3)C1)c(=O)n2C [Compound 89, 2-Fluoro-5-methyl-4-((7-methyl-8-oxo-9-(2-oxaspiro[3.3]heptan-6-yl)-8,9-dihydro-7H-purin-2-yl)amino)benzamide]"
5,10.8,"Cc1cc(C(N)=O)c(F)cc1Nc1ncc2c(n1)n(C13CCC(C#N)(CC1)CC3)c(=O)n2C [Compound 90, 4-((9-(4-cyanobicyclo[2.2.2]octan-1-yl)-7-methyl-8-oxo-8,9-dihydro-7H-purin-2-yl)amino)-2-fluoro-5-methylbenzamide]"
6,2.44,"Cc1cc(C(N)=O)c(F)cc1Nc1ncc2c(n1)n(C1CCCC(C)(O)C1)c(=O)n2C (stereo not shown) [Compound 91, 2-Fluoro-4-((9-(3-hydroxy-3-methylcyclohexyl)-7-methyl-8-oxo-8,9-dihydro-7H-purin-2-yl)amino)-5-methylbenzamide]"
7,0.02,"Cc1cc(C(N)=O)c(F)cc1Nc1ncc2c(n1)n(C1CCC(C)(C#N)CC1)c(=O)n2C (stereo not shown) [Compound 92, 4-((9-(4-cyano-4-methylcyclohexyl)-7-methyl-8-oxo-8,9-dihydro-7H-purin-2-yl)amino)-2-fluoro-5-methylbenzamide]"
8,7.2,"Cc1cc(C(N)=O)c(F)cc1Nc1ncc2c(n1)n([C@H]1C[C@@H](O)C1)c(=O)n2C [Compound 94, 2-Fluoro-4-((9-(cis-3-hydroxycyclobutyl)-7-methyl-8-oxo-8,9-dihydro-7H-purin-2-yl)amino)-5-methylbenzamide]"
9,0.6,"Cc1cc(C(N)=O)c(F)cc1Nc1ncc2c(n1)n(C1CCCC(O)C1)c(=O)n2C (stereo not shown) [Compound 95, 2-Fluoro-4-((9-(-3-hydroxycyclohexyl)-7-methyl-8-oxo-8,9-dihydro-7H-purin-2-yl)amino)-5-methylbenzamide]"
10,3.89,"Cc1cc(C(N)=O)c(F)cc1Nc1ncc2c(n1)n(C1CCC(CO)OC1)c(=O)n2C (stereo not shown) [Compound 96, 2-Fluoro-4-((9-(6-(hydroxymethyl)tetrahydro-2H-pyran-3-yl)-7-methyl-8-oxo-8,9-dihydro-7H-purin-2-yl)amino)-5-methylbenzamide]"
11,0.68,"Cc1cc(C(N)=O)c(F)cc1Nc1ncc2c(n1)n(C1CC3(CC(CO)C3)C1)c(=O)n2C (stereo not shown) [Compound 97, 2-Fluoro-4-((9-(6-(hydroxymethyl)spiro[3.3]heptan-2-yl)-7-methyl-8-oxo-8,9-dihydro-7H-purin-2-yl)amino)-5-methylbenzamide]"
12,4.01,"Cc1cc(C#N)ccc1Nc1ncc2c(n1)n(C1CC3CC(O)CC3C1)c(=O)n2C (stereo not shown) [Compound 98, 4-[(9-(5-hydroxy-octahydropentalen-2-yl)-7-methyl-8-oxo-8,9-dihydro-7H-purin-2-yl)amino]-3-methylbenzonitrile]"
13,2.13,"Cc1cc(C(N)=O)c(F)cc1Nc1ncc2c(n1)n(C1C[C@@H]3COC[C@H]3C1)c(=O)n2C [Compound 99, 2-fluoro-4-((9-((3aS,6aS)-hexahydro-1H-cyclopenta[c]furan-5-yl)-7-methyl-8-oxo-8,9-dihydro-7H-purin-2-yl)amino)-5-methylbenzamide]"
14,2.2,"Cc1cc(C#N)ccc1Nc1ncc2c(n1)n(C1CC3COCC3C1)c(=O)n2C (stereo not shown) [Compound 100, 4-((9-(hexahydro-1H-cyclopenta[c]furan-5-yl)-7-methyl-8-oxo-8,9-dihydro-7H-purin-2-yl)amino)-3-methylbenzonitrile]"
15,9.6,"Cc1cc(C#N)ccc1Nc1ncc2c(n1)n(C1CCS(=O)(=O)CC1)c(=O)n2C [Compound 101, 4-((9-(1,1-dioxidotetrahydro-2H-thiopyran-4-yl)-7-methyl-8-oxo-8,9-dihydro-7H-purin-2-yl)amino)-3-methylbenzonitrile]"
16,5.54,"[2H]C([2H])([2H])C([2H])([2H])n1c(=O)n(C2CCOCC2)c2nc(Nc3cc(F)c(C(N)=O)cc3C)ncc21 [Compound 105, 4-((7-(ethyl-d5)-8-oxo-9-(tetrahydro-2H-pyran-4-yl)-8,9-dihydro-7H-purin-2-yl)amino)-2-fluoro-5-methylbenzamide]"
17,6.75,"Cc1cc(C(N)=O)c(F)cc1Nc1ncc2c(n1)n(C1CCOCC1)c(=O)n2CC(F)F [Compound 106, 4-((7-(2,2-difluoroethyl)-8-oxo-9-(tetrahydro-2H-pyran-4-yl)-8,9-dihydro-7H-purin-2-yl)amino)-2-fluoro-5-methylbenzamide]"
18,10.1,"CCn1c(=O)n([C@H]2CCOC2)c2nc(Nc3cc(F)c(C(N)=O)cc3C)ncc21 [Compound 107, (S)((7-Ethyl-8-oxo-9-(tetrahydrofuran-3-yl)-8,9-dihydro-7H-purin-2-yl)amino)-2-fluoro-5-methylbenzamide]"
19,5.54,"Cc1cc(C(N)=O)c(F)cc1Nc1ncc2c(n1)n(C1CCOCC1)c(=O)n2CCF [Compound 109, 2-Fluoro-4-((7-(2-fluoroethyl)-8-oxo-9-(tetrahydro-2H-pyran-4-yl)-8,9-dihydro-7H-purin-2-yl)amino)-5-methylbenzamide]"
